Test results: PubChem BioAssay AID1794817

Biological target: Synaptic vesicular amine transporter (Homo sapiens) (UniProt Q05940)
Experiment: SLC18A2 vesicular uptake inhibitors, dose response (AID 1794817)
Conditions: HEK-293 SLC18A2 OE, FFN206 uptake fluorescence

Synaptic vesicular amine transporter (Homo sapiens), sequence (Q05940 whole entry, looked up): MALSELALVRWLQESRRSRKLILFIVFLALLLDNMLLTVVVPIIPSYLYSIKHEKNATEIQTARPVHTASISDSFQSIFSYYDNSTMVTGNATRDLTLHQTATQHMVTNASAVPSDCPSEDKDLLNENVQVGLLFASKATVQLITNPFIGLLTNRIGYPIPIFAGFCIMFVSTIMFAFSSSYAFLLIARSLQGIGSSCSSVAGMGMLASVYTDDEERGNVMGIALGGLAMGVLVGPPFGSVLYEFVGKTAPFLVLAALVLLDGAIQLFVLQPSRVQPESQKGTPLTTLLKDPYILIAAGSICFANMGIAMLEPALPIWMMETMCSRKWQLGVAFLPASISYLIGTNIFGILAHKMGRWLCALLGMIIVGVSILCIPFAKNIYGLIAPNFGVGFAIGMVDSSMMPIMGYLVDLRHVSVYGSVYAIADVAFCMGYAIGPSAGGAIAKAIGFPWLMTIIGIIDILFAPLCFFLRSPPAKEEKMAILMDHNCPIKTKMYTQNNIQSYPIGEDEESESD

## COc1cc2c(cc1OC)C1CC(=O)C(CC(C)C)CN1CC2 (configuration not stated)
  IC50: 19.8 nM

## CNc1ccc2c(CCN)cc(=O)oc2c1
  IC50: 3560 nM
